What all share (type): cell-based
Test [1] concerns M2 macrophages. Put plainly: Anti-cell viability screening: reduction of M2 macrophage cell viability (Percentage Relative Cell Viability versus Log Molar Concentration). The protocol:
Assays were conducted in a 96-well black solid-bottom plate with a final assay volume of 100 μL.

Test [2] concerns M2 polarized macrophages with intact CD206 (wild type) versus isogenic M2 polarized macrophages lacking the CD206 receptor. Put plainly: Cell viability in M2 polarized macrophages with intact CD206 versus isogenic macrophages lacking CD206.
The test system of another test is murine M2 macrophages. Put plainly: M1 markers in murine M2 macrophages by quantitative flow cytometry. Particulars: 20 μM for 2 hours. In general terms: In flow cytometry, cells or beads pass a laser one at a time.
Test [3] has as its system M2 macrophages. Put plainly: Cancer cell phagocytosis by M1 and M2 macrophages, relative quantitative fluorescence. Particulars: M2 versus M1 macrophages. The source says: FIGS. 14A to 14B illustrate this selectivity towards M2 macrophages.
Where [4] appears, read: Macrophage, Table 2, read-out: IC50.
[5] abbreviates: Macrophage, figure legends and text, read-out: IC50, macrophage activity (Percentage Relative Cell Viability versus Log Molar Concentration) (converted).

Where two headings read alike, the source gives them in different places.

As for `O=C(c1cc2ccccc2[nH]1)N1CCc2c(n(Cc3cccnc3)n(CCc3ccccc3)c2=O)C1` [Compound 2], the IC50 in the test on M2 macrophages [1] (setting [4]) was 4.59 µM. Also, in the test with M2 macrophages [1] (Table 2), the “M2 Selectivity” value is “Yes”. For the same molecule, the “CD206 dependence of macrophage activity” value in test [2] was “CD206 dependent”. Further, the “M1 markers (percent positive cell fractions)” value with murine M2 macrophages was “induction of M1 markers in M2 macrophages”.
Consider `CC(=O)c1c(C)oc2ccc(N(C(=O)Oc3ccccc3)[S+](=O)(O)c3ccccc3)cc12` [Compound 3], for which the IC50 in the test with M2 macrophages [1] (setting [4]) was found to be 3.88 µM. In the test on M2 macrophages [1] (Table 2), the “M2 Selectivity” value is listed as “Yes”. Also, in test [2], the “CD206 dependence of macrophage activity” value was “CD206 dependent”.
With `O=C(NCCCn1ccnc1)c1ccc(-c2ncc3cnc(-c4ccccc4)cn23)cc1` [Compound 6, N-(3-(1H-imidazol-1-yl)propyl)-4-(6-phenylimidazo[1,5-a]pyrazin-3-yl)benzamide], in the test on M2 macrophages [1] (setting [5]), the IC50 is 3.85 µM.
Take `CC(=O)NCCNC(=O)c1ccc(-c2ncc3cnc(-c4cccc(F)c4)cn23)cc1` [Compound 10, N-(2-acetamidoethyl)-4-(6-(3-fluorophenyl)imidazo[1,5-a]pyrazin-3-yl)benzamide]: the IC50 in the test on M2 macrophages [1] (figure legends and text, read-out: IC50, macrophage activity (Percentage Relative Cell Viability versus Log Molar Concentration) (converted)) was 5.45 µM.
Consider `NC(=O)c1ccc(-c2ncc3cnc(-c4cccc(F)c4)cn23)cc1` [Compound 8, 4-(6-(3-fluorophenyl)imidazo[1,5-a]pyrazin-3-yl)benzamide], for which the IC50 in the test with M2 macrophages [1] (setting [5]) is 0.45 µM.
The same measure, in the same setting: as for `CC(=O)Nc1ccc(NC(=O)c2ccc(-c3ncc4cnc(-c5ccccc5)cn34)cc2)cc1` [Compound 5, N-(4-acetamidophenyl)-4-(6-phenylimidazo[1,5-a]pyrazin-3-yl)benzamide], the figure is 7.36 µM; as for `O=C(NCCN1CCOCC1)c1ccc(-c2ncc3cnc(-c4ccccc4)cn23)cc1` [Compound 4, N-(2-Morpholinoethyl)-4-(6-phenylimidazo[1,5-a]pyrazin-3-yl)benzamide], 8.95 µM; as for `CN(C)CCNC(=O)c1ccc(-c2ncc3cnc(-c4ccccc4)cn23)cc1` [Compound 7, N-(2-(dimethylamino)ethyl)-4-(6-phenylimidazo[1,5-a]pyrazin-3-yl)benzamide], 3.13 µM.
`O=C(NCCCN1CCCC1=O)c1ccc(-c2ncc3cnc(-c4ccccc4)cn23)cc1` [Compound 28, N-(3-(2-oxopyrrolidin-1-yl)propyl)-4-(6-phenylimidazo[1,5-a]pyrazin-3-yl)benzamide]: the cancer cell phagocytosis entry with M2 macrophages [3] is given as “increases cancer cell phagocytosis in M2 but not in M1 macrophages”.
Take `O=C(NCCCO)c1ccc(-c2ncc3cnc(-c4cccc(F)c4)cn23)cc1` [Compound 9, 4-(6-(3-fluorophenyl)imidazo[1,5-a]pyrazin-3-yl)-N-(3-hydroxypropyl)benzamide]: in the test with M2 macrophages [1] (setting [5]), the IC50 is 0.73 µM.

The values above are taken from patent US20230056497A1, “CD206 Modulators Their Use and Methods for Preparation” (The United States of America, As Represented by the …, priority 2019, published 2023).
